Experimental data from patent US6372957B1, “Transgenic mouse comprising a MEF2 binding site operatively linked to an indicator gene and methods of use” (Board of Regents, The University of Texas System, priority 1998, dated 2002).

Tests used:
[1] = system: GAL4-MEF2C fusion protein; assay: pG5E1b-luciferase (Gal-luc) reporter with GAL-MEF2C (complete open reading frame) in cardiomyocytes; assay type: cell-based, rat; conditions: for block of activation of GAL-MEF2C by PE: cardiomyocytes stimulated with PE
Description: FIG. 12A, FIG. 12B and FIG. 12C. CaM kinase and MAP kinase target different domains of MEF2. Primary neonatal rat cardiomyocytes in serum-free medium were transiently transfected with the indicated expression plasmids and luciferase activity was determined in cell extracts. FIG. 12A, cells were stimulated with PE (10 uM) or 10% FBS, as indicated, and expression of the MEF2-dependent reporter, 3×MEF2-luciferase, was assayed. FIG. 12B, cells transiently transfected with pG5E1b-luciferase (Gal-luc) and GAL-MEF2C were stimulated with PE, as in FIG. 12A, in the presence of KN62 or SB202190, as indicated. FIG. 12C, cells were transiently transfected with pG5E1b-luciferase and GAL-MEF2C (left panel) or GAL-MEF2C-ΔN (right panel) along with activated CaMKIV and MKK6, as indicated.

[2] = system: MEF2; assay: MEF2 DNA binding activity in stimulated cardiomyocytes; assay type: cell-based, rat; conditions: cardiomyocytes stimulated with PE or FBS
[3] = system: MEF2; assay: 3×MEF2-luciferase MEF2-dependent reporter in transiently transfected primary neonatal rat cardiomyocytes; assay type: cell-based
Description: To determine whether MEF2 was a target for hypertrophic signaling in cardiomyocytes, the inventors tested whether hypertrophy in response to phenylephrine (PE) and fetal bovine serum (FBS) activated a MEF2-dependent reporter (3×MEF2-luciferase), containing three MEF2 binding sites.

[4] = system: GAL4-MEF2C fusion protein; assay: GAL4-dependent reporter with GAL4 fused to the C-terminus of MEF2C (transcription activation domains) in cardiomyocytes; assay type: cell-based; conditions: stimulation of cardiomyocytes
Excerpt: FIG. 6. Phenylephrine induces MEF2C transcriptional activity through a CaMK-dependent pathway. Cardiomyocytes were transiently transfected with expression vectors encoding GAL4-MEF2C and a GAL4-dependent reporter gene in the presence and absence of PE and the CaMK inhibitor KN-93.
In light of the ability of MEF2 to respond to calcium-dependent signal transduction pathways in T cells, the inventors have investigated whether the same pathways also activate MEF2 in cardiomyocytes. […] When the C-terminus of MEF2C, which contains the transcription activation domains (TADs), but lacks the MADS and MEF2 domains required for DNA binding and dimerization, is fused to the DNA binding domain of the yeast transcription factor GAL4, the resulting GAL4-MEF2C fusion protein retains sensitivity to calcineurin and CaMKIV (FIG. 5). This GAL4-MEF2C fusion protein is also activated by stimulation of cardiomyocytes with the hypertrophic agonist phenylephrine (PE) (FIG. 6).

block of activation of GAL-MEF2C by PE [1]	amount of MEF2 DNA binding activity [2]	activation of MEF2-dependent reporter (3×MEF2-luciferase) ([3]; primary neonatal rat cardiomyocytes, serum-free medium, PE 10 uM or 10% FBS)	activity of GAL4-MEF2C fusion protein (complete open reading frame of MEF2C) ([1]; cardiomyocytes, PE or FBS)	SMILES	activation of a reporter containing a mutant MEF2 site ([3]; cardiomyocytes, PE or FBS)	activation of GAL4-MEF2C fusion protein (C-terminus of MEF2C) [4]
partially blocked	–	–	–	CN([C@@H](Cc1ccc(OS(=O)(=O)c2cccc3cnccc23)cc1)C(=O)N1CCN(c2ccccc2)CC1)S(=O)(=O)c1cccc2cnccc12 [KN62]	–	–
–	unchanged	stimulated the MEF2 reporter	stimulated activity	CNC[C@H](O)c1cccc(O)c1 [PE, phenylephrine]	not a reporter containing a mutant MEF2 site	activated
partially blocked	–	–	–	Oc1ccc(-c2nc(-c3ccncc3)c(-c3ccc(F)cc3)[nH]2)cc1 [SB202190]	–	–
